Marks after values point to notes of the source that are not given here.
Columns and labels:
[1] = tested on: itch-associated scratching induced by serotonin; test: Animal model for OCD: serotonin-induced scratching; format: in vivo, male Swiss-Webster mice; settings: for Number of Scratches as Percentage of Control: inducer Serotonin
Description: (§1) The 5-HT action is at least partly mediated by 5-HT2 receptors in the skin, as shown by blocking with specific antagonists (Yamaguchi, T., Nagasawa, T., Satoh, M., Kuraishi, Y. “Itch-associated Response Induced by Intradermal Serotonin Through 5-HT2 Receptors in Mice” Neurosci. Res. 1999, 35, 77). The effect of test compounds on itch-associated scratching in the mice may indicate their action on 5-HT receptors, and a study was carried out as an animal model for OCD. The subjects were male Swiss-Webster mice, 4-6 weeks old, weighing 25-45 g. Mice were housed 5 per cage, given free access to standard mouse food and water except during experiments, and maintained in a temperature-controlled room (70° F.). Serotonin and all test drugs were made up with ascorbic acid to protect against oxidation. Two mice, one a control, the other experimental, were tested each time. Each mouse was separately placed into a plexiglas box.
(§2) Mice were injected subcutaneously between the shoulder blades with either 0.1 ml of serotonin, 0.4 mg per ml in 0.15 M saline plus ascorbic acid, 1 mg/ml, or compound 48-80 (the copolymer product of N-methyl-p-methoxyphenethylamine with formaldehyde), 1.0 mg/ml in saline plus ascorbic acid. Test compounds were injected i.p. 5 minutes before the inducer. The cumulative number of scratches with a hind leg was recorded at 5 minute intervals for 30 minutes. One saline injected control and one test animal were tested together in each assay.

5-HT2A [2] = target: T1, 5-HT2A (Homo sapiens, UniProt P28223); test: Phosphoinositide hydrolysis functional assay; format: cell-based; set-up: expressed in transfected cells; settings: for EC50: activation of phosphoinositide hydrolysis, stably expressed receptor; for percent Vmax relative to serotonin at 100%, 5-HT2A: value in brackets
T1 sequence (P28223 whole entry): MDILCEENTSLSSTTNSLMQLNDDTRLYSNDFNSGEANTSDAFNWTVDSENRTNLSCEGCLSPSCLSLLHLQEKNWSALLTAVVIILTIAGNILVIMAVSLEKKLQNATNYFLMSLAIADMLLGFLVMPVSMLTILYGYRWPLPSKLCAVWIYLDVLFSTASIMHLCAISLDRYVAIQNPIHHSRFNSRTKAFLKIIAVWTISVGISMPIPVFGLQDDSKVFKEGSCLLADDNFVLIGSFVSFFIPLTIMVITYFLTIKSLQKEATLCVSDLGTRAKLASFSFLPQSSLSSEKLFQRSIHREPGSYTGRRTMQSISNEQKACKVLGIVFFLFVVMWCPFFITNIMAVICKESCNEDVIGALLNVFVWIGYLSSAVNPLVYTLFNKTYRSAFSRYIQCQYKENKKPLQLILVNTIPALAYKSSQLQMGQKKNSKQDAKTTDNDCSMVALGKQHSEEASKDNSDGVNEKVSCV
Description: (§3) Phosphoinositide hydrolysis assays were performed with stably (5-HT2A, 5-HT2C) or transiently (5-HT2B) expressed receptors plated in 24-well culture plates. Transfected cells were loaded with […] overnight in inositol-free DMEM without serum. The next day, phosphate accumulation assays were performed in a modified Krebs-bicarbonate buffer. Kact (nmol/L) and percent Vmax (relative to 5-HT) values were calculated (Roth, B. L., Shoham, M., Choudhary, M., Khan, N. “Identification of Conserved Aromatic Residues Essential for Agonist Binding and Second Messenger Production at 5-Hydroxytryptamine 2A Receptors” Mol. Pharmacol. 1997, 52, 259; Roth, B. L., Choudhary, M., Khan, N., Uluer, A. “High-affinity Agonist Binding is not Sufficient for Agonist Efficacy at 5-Hydroxytryptamine 2A Receptors: Evidence in Favor of a Modified Ternary Complex Model” J. Pharmacol. Exp. Ther. 1997, 280, 576).
(§4) Functional Assay (EC50) in nM. Data represent mean EC50 values for activation of phospho-inositide hydrolysis in cells expressing human 5-HT2A, 5-HT2B or 5-HT2C-INI receptors, relative to serotonin at 100%. When the standard deviation is given, N≧3.

5-HT2B [3] = target: T2, 5-HT2B (Homo sapiens, UniProt P41595); test: Phosphoinositide hydrolysis functional assay; format: cell-based; set-up: expressed in transfected cells; settings: for EC50: activation of phosphoinositide hydrolysis, transiently expressed receptor
T2 sequence (P41595 whole entry): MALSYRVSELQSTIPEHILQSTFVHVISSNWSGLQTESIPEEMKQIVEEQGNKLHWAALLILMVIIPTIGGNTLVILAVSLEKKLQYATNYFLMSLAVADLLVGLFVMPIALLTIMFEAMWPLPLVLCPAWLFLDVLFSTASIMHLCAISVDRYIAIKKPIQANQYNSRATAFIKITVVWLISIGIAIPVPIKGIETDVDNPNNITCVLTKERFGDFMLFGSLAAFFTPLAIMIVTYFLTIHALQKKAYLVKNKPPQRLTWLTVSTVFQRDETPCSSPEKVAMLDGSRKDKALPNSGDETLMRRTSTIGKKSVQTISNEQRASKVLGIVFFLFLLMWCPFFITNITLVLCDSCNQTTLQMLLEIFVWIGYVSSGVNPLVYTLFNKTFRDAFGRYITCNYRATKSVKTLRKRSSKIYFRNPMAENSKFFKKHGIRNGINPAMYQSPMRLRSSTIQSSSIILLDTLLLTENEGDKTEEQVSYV
Description: as §3, §4

human 5-HT2C-INI = target: T3, human 5-HT2C-INI (Homo sapiens, UniProt P28335); test: Phosphoinositide hydrolysis functional assay; format: cell-based; settings: for EC50: activation of phosphoinositide hydrolysis, stably expressed receptor; for Emax: value in brackets, read-out: percent Vmax relative to serotonin at 100%, 5-HT2C (converted)
T3 construct: expressed in transfected cells
T3 sequence (P28335 33-458): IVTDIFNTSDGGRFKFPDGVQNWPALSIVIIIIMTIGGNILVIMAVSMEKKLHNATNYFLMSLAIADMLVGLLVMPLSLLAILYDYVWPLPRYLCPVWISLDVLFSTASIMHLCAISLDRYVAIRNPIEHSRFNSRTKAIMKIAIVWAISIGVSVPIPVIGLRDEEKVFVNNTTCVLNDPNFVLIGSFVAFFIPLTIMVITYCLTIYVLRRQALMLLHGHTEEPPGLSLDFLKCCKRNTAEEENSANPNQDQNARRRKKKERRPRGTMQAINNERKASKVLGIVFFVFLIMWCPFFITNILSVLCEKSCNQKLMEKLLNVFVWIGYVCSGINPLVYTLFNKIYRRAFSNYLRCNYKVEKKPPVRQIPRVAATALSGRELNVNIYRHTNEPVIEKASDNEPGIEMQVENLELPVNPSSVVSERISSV
Description: as §3, §4

[4] = Appetite suppression in mice, acute assay (food consumption); format: in vivo; settings: for Mean food consumption 60 min. after injection: g (±SEM) Compound / Mean food consumption 90 min. after injection: g (±SEM) Compound: mice deprived of food 18 hours
Description: Mice were deprived of food, but not water, for 18 hours. They were then injected i.p. with test compounds dissolved in 0.9% NaCl containing 1 mg per ml ascorbic acid for protection against oxidation. Each mouse was placed in an individual cage for 30 minutes and then presented with a small petri dish containing a gel made from gelatin, powdered milk and sucrose. The dish was weighed at zero time and at 15-minute intervals for the next hour in order to quantitate food consumption. Controls were injected with saline-ascorbic acid; ±fenfluramine was used as an active control. Control consumption generally ranged from 1.5 to 2.0 grams.

5-HT2A [5] = target: T1, 5-HT2A; test: Receptor binding, competition binding assay
Description: (§5) For initial screens, a 10 micromolar concentration of each compound (dissolved in 10% DMSO) was incubated with the appropriate receptor preparation and percent inhibition determined for duplicate determinations each performed in duplicate. Where >50% inhibition of specific binding was measured, Ki determinations were then measured by competition binding assays in which concentrations from 1 to 100,000 nM were incubated in duplicate. For each Ki value the data represent the mean+/−SD of computer-derived estimates for N=4 separate determinations, as described (Rothman, R., Baumann, M., Savage, J., Rauser, L., McBride, A., Hufeisen, S., Roth, B. L. “Evidence for Possible Involvement of 5-HT2B Receptors in the Cardiac Valvulopathy Associated with Fenfluramine and other Serotonergic Medications” Circulation 2000, 102, 2836; Roth, B. L., Shoham, M., Choudhary, M., Khan, N. “Identification of Conserved Aromatic Residues Essential for Agonist Binding and Second Messenger Production at 5-Hydroxytryptamine 2A Receptors” Mol. Pharmacol. 1997, 52, 259; Roth, B. L., Choudhary, M., Khan, N., Uluer, A. “High-affinity Agonist Binding is not Sufficient for Agonist Efficacy at 5-Hydroxytryptamine 2A Receptors: Evidence in Favor of a Modified Ternary Complex Model” J. Pharmacol. Exp. Ther. 1997, 280, 576).
(§6) Receptor binding (Ki) in nM. When the standard deviation is given N≧3.

5-HT2B [6] = target: T2, 5-HT2B; test: Receptor binding, competition binding assay
Description: as §5, §6

5-HT2C [7] = target: T4, 5-HT2C (Homo sapiens, UniProt P28335); test: Receptor binding, competition binding assay
T4 sequence (P28335 33-458): T3 sequence (P28335 33-458)
Description: as §5, §6

[8] = tested on: itch-associated scratching induced by compound 48-80; test: Animal model for OCD: compound 48-80-induced scratching; format: in vivo, male Swiss-Webster mice
Description: as §1
as §2, with “One saline injected control and one test animal were tested together in each assay.” left out

[9] = Appetite suppression in mice, chronic assay (body weight); format: in vivo
Description: Mice were injected i.p. at intervals of 2 or 3 days and weighed repeatedly (6 or 7 total injections). Controls were injected with saline. Weighing and injection were carried out between 11 AM and 1 PM.

5-HT2C [10] = target: T4, 5-HT2C; settings: background, literature; cited from earlier work
[11] = 5 mg/kg i.p. 5 minutes before inducer Serotonin
[12] = 20 mg/kg i.p. at intervals of 2 or 3 days
[13] = 30 mg/kg i.p. at intervals of 2 or 3 days

| Compound | melting point [°C] | Average Number of Scratches 30 min. after injection [1, 11] | Number of Scratches as Percentage of Control ([1]; 5 mg/kg i.p.) [%] | EC50 (5-HT2A [2]) [nM] | percent Vmax relative to serotonin at 100%, 5-HT2A (5-HT2A [2]) | EC50 (5-HT2B [3]) [nM] | EC50 (human 5-HT2C-INI) [nM] | Emax (human 5-HT2C-INI) [%] | % of Control (food consumption 60 min. after injection) ([4]; 10 mg/kg i.p.) [%] | % of Control (food consumption 90 min. after injection) ([4]; 10 mg/kg i.p.) [%] | Mean food consumption 60 min. after injection: g (±SEM) Compound ([4]; 10 mg/kg i.p.) | Mean food consumption 90 min. after injection: g (±SEM) Compound ([4]; 10 mg/kg i.p.) | % of Control (food consumption 60 min. after injection) ([4]; 20 mg/kg i.p.) [%] | % of Control (food consumption 90 min. after injection) ([4]; 20 mg/kg i.p.) [%] | Mean food consumption 60 min. after injection: g (±SEM) Compound ([4]; 20 mg/kg i.p.) | Mean food consumption 90 min. after injection: g (±SEM) Compound ([4]; 20 mg/kg i.p.) | % of Control (food consumption 60 min. after injection) ([4]; 30 mg/kg i.p.) [%] | Ki (5-HT2A [5]) [nM] | Ki (5-HT2B [6]) [nM] | Ki (5-HT2C [7]) [nM] | also measured |
| --- | --- | --- | --- | --- | --- | --- | --- | --- | --- | --- | --- | --- | --- | --- | --- | --- | --- | --- | --- | --- | --- |
| CN(C)CCc1cn(C)c2c(F)ccc(O)c12 [Compound O-3804, 3-(2-Dimethylaminoethyl)-7-fluoro-1-methyl-1H-indol-4-ol] | 134 to 138 | 128.4 | 34.2 | 129 ± 1.44 | (125.4% ± 6.225%) | 35.4 ± 1.31 | 0.517 | 89.9 | 114 | 96 | 1.3 (.14) g | 1.76 (.15) g | 99 | 107 | 1.48 (.19) g | 1.86 (.20) g | 56 | 68.2 | 3.64 | 25.4 | Average Number of Scratches 30 min. after injection ([1]; 20 mg/kg i.p. 5 minutes before inducer Serotonin): 12.8*; Number of Scratches as Percentage of Control ([1]; 20 mg/kg i.p.): 2.2%; percent Vmax relative to serotonin at 100%, 5-HT2B (5-HT2B [3]; value in brackets): (7.0 ± 0.92%); % of Control (food consumption 90 min. after injection) ([4]; 30 mg/kg i.p.): 77%; Mean food consumption 60 min. after injection: g (±SEM) Compound ([4]; 30 mg/kg i.p.): 0.79 (.09)* g; Mean food consumption 90 min. after injection: g (±SEM) Compound ([4]; 30 mg/kg i.p.): 1.37 (.11) g |
| CCn1cc(CCN(C)C)c2c(O)ccc(F)c21 [Compound O-3943, 3-(2-Dimethylaminoethyl)-7-fluoro-1-ethyl-1H-indol-4-ol] | 114 to 120 |  |  | 12.9 |  | > 10000 | 5.4 ± 2.5 | 100 |  |  |  |  |  |  |  |  |  | 97 ± 35 | 2.5 ± 0.84 | 9.1 ± 3.99 |  |
| CN(C)CCc1cn(C)c2c(F)ccc(OP(=O)(O)O)c12 [Compound O-3944, 3-(2-Dimethylaminoethyl)-7-fluoro-1-methyl-1H-indol-4-phosphate] |  | 113.4* | 20.2 |  |  |  |  |  | 74 | 75 | 0.84 (.17) g | 1.38 (.13) g | 41 | 62 | 0.56 (.10)* g | 1.05 (.14)* g | 15 |  |  |  | Average Number of Scratches 30 min. after injection ([1]; 2 mg/kg i.p. 5 minutes before inducer Serotonin): 231.6; Number of Scratches as Percentage of Control ([1]; 2 mg/kg i.p.): 39.3%; Average Number of Scratches 30 min. after injection ([8]; 30 mg/kg i.p. 5 minutes before inducer 48-80): 0*; Number of Scratches as Percentage of Control ([8]; 30 mg/kg i.p., inducer 48-80): 0%; Day 7 % Δ from starting weight [9, 12]: −1.75* %; Day 7 Difference within same group [9, 12]: -0.78 g; Day 14 % Δ from starting weight [9, 12]: −2.04* %; Day 14 Difference within same group [9, 12]: -0.91 g; Day 7 % Δ from starting weight [9, 13]: −3.66* %; Day 7 Difference within same group [9, 13]: -1.89 g; Day 14 % Δ from starting weight [9, 13]: −4.13* %; Day 14 Difference within same group [9, 13]: -2.13 g; % of Control (food consumption 90 min. after injection) ([4]; 30 mg/kg i.p.): 55%; Mean food consumption 60 min. after injection: g (±SEM) Compound ([4]; 30 mg/kg i.p.): 0.13 (.05)* g; Mean food consumption 90 min. after injection: g (±SEM) Compound ([4]; 30 mg/kg i.p.): 0.65 (.11)* g |
| CCCn1cc(CCN(C)C)c2c(O)ccc(F)c21 [Compound O-3952, 3-(2-Dimethylaminoethyl)-7-fluoro-1-propyl-1H-indol-4-ol] | 75 to 79 |  |  | 1280 | 103% +/− 7 | > 10000 | 11 ± 4 | 89 |  |  |  |  |  |  |  |  |  | 492 ± 79.3 | 2.79 ± 0.31 | 10.5 ± 2.39 |  |
| CN(C)CCc1cn(CCF)c2c(F)ccc(O)c12 [Compound O-3975, 3-(2-Dimethylaminoethyl)-7-fluoro-1-(2-fluoroethyl)-1H-indol-4-ol] | 97 to 101 |  |  | 614 |  | > 10000 | > 2000 |  |  |  |  |  |  |  |  |  |  | 308 ± 61.4 | 2.77 ± 0.31 | 7.74 ± 0.65 |  |
| C[C@H](N)Cn1ccc2cc(F)c(Cl)cc21 [Ro 60-0175] |  |  |  |  |  |  |  |  |  |  |  |  |  |  |  |  |  |  |  |  | times more active at 5-HT2C as compared to 5-HT2A (5-HT2C [10]): 25 times |

From US8071786B2, “Indole compounds useful as serotonin selective agents” (Galenea Corp., priority 2005, dated 2011)
